The text below walks through data of paper PMC12406196, “Anticoronavirus Activity of Uridine Glycoconjugates Containing a 1,2,3-Triazole Moiety” (Journal of Medicinal Chemistry, 2025).

Data set [1] concerns murine hepatitis virus (MHV). Also on record: method as in not printed at the place. Conditions: tunicamycin treatment; ref not given; cited from earlier work.
On the set-up of data set [2]: method as in not printed at the place. Particulars: clinical use; ref not given; cited from earlier work.
For data set [3], the system named is murine hepatitis virus strain A59 (MHV). Briefly: Reduction of MHV cytopathic effect (CPE) in LR7 cells, MTS/PMS readout. Format: cell-based. Here is the method:
LR7 cells were seeded in a 96-well plate and cultured overnight. Next, the cells were infected with MHV at an MOI value of 0.01 in medium without FBS. Following 1 h of incubation, the medium containing the virus was collected and cells were covered with a medium supplemented with different concentrations (in triplicate) of the analyzed compounds or DMSO. 24 h p.i. cells viability was evaluated by CellTiter 96 AQueous nonradioactive cell proliferation assay (Promega) according to the manufacturer’s instruction.

Data set [4] is described as follows: MTS-based cell viability assay in LLC-Mk2 cells. Conditions: Macaca mulatta, read-out: CC50 (HCoV-NL63 block). As for the experimental part:
(§1) LR7, LLC-Mk2 or Vero cells were seeded in 96-well plates and cultured overnight. Next, the medium was changed to a new one supplemented with different concentrations (in triplicate) of analyzed compounds. Following the 2 days (LR7 and Vero) or 4 days (LLC-Mk-2) of incubation, CellTiter 96 AQueous nonradioactive cell proliferation assay (Promega) was performed according to the manufacturer’s instruction. The half-maximal cytotoxic concentration (CC50) was calculated as the concentration of a compound needed to reduce cell viability by 50% using GraphPad Prism software (version 5.01, GraphPad Software, San Diego, CA).

Data set [5] deals with murine hepatitis virus strain A59 (MHV). Put plainly: MHV titer in medium of infected LR7 cells, plaque assay. The data set is classed as cell-based. Conditions: for IC50: Murine coronavirus. As for the experimental part:
LR7 or LLC-Mk2 cells were infected at a MOI of 0.01 with MHV and HCoV-NL63, respectively, and treated with selected compounds at a concentration ranging from 0 to 50 μM. Culture supernatants were collected 1 day (MHV) or 4 days (HCoV-NL63) after infection. Virus titer was determined by plaque assay.
(§2) The half-maximum inhibitory concentration value (IC50) indicating the concentration of compound needed to reduce virus titer by 50% in comparison to the control, was evaluated by GraphPad software (version 5.01, GraphPad Software, San Diego, CA).

Data set [6] concerns HCoV-NL63 RNA synthesis. Briefly: HCoV-NL63 RNA level in infected LLC-Mk2 cells, RT-PCR. Format: cell-based, human coronavirus NL63. Particulars: MOI 0.01, 96 h p.i. As for the experimental part:
LR7 or LLC-Mk2 were cultured in 12-well plate overnight. Next, LR7 cells were infected with MHV at an MOI value of 1 for 1 h or LLC-Mk2 cells were infected with HCoV-NL63 at an MOI value of 0.01 for 2 h. Following removal of unbound virus, cells were cultured with medium supplemented with different concentrations of selected compounds. 8 h p.i. (MHV) or 96 h p.i. (HCoV-NL63) cells were collected and total RNA was isolated by CoV RNA kit (A&A Biotechnology, Poland) according to the manufacturer’s instruction. To evaluate levels of viral RNA in infected cells Qiagen One-Step RT-PCR reaction was performed. Following reverse transcription, the PCR reaction was carried out using primers: F: […], R: […] for amplification of a fragment of HCoV-NL63 genome (position: 26418–26960 bp NC_005831.2) and F: […] and R: […] for amplification of a fragment of MHV genome (position: 30341–30902 bp FJ647225.1). For internal control fragment of β-actin mRNA was reverse transcribed and amplified using primers For: […] and Rev: […].

In data set [7] the test system is human coronavirus strain NL63 (HCoV-NL63). Put plainly: HCoV-NL63 N protein expression in LLC-Mk2 cells, Western blot and densitometry. Format: cell-based. Conditions: 50 μM, MOI 0.01, 4 days p.i., Western blot/densitometry. Here is the method:
LLC-Mk2 monolayers grown in 24-well plates were infected with HCoV-NL63 at an MOI value of 0.01 for 2 h. Unbound virus was removed, and cells were cultured in medium supplemented with different concentrations of compounds. Four days postinfection, cells were collected and lysed in CellLyticM Cell Lysis Reagent (Sigma). Following the protein separation by SDS-PAGE and transfer to PVDF membranes, proteins were immunoblotted using specific mouse anti-N NL63 Abs (Eurofins, Spain) or rabbit anti-β-catenin Abs (Santa Cruz), followed by antimouse or antirabbit secondary antibodies conjugated with HRP. Proteins were visualized and analyzed by chemiluminescence using the UVITEC Cambridge Alliance MINI HD detection system. The densitometric analysis of cells treated with 50 μM dose of a panel of glycoconjugates was performed based on three biological replicates of N and β-catenin immunoblots. The N protein levels were expressed as a percentage relative to DMSO-treated infected cells, while β-catenin levels were expressed as a percentage relative to noninfected control cells. The data were presented as the ratio of N/β-catenin for each sample, normalized accordingly.

Data set [8] has as its system SARS-CoV-2. Briefly: SARS-CoV-2 infectivity in supernatants of infected Vero cells, plaque assay. Format: cell-based. Particulars: read-out: IC50 (SARS-CoV-2). Here is the method:
Vero cells were seeded in appropriate plates and allowed to reach an approximately 90% confluence. For infection, 200 μL of viral suspension containing 10^5 pfu (SARS-CoV-2 strain SARS-CoV-2/human/Czech Republic/951/2020) was added to each well and incubated for 2 h at 37 °C to allow virus adsorption. After the incubation, the viral medium was removed, and the wells were washed gently with phosphate-buffered saline (PBS). Test compounds were prepared in serial dilutions to final concentrations of 50, 25, 12.5, 6.25, 3.125, and 0 μM in the medium (DMEM containing 2% FBS). The compounds were added in quadruplicate to the infected cells. The plates were then incubated for 48 h at 37 °C. Following the 48 h treatment period, the supernatants were removed, and plaque assays in Vero E6 cells were performed to assess viral titers. Cells were fixed and stained 4 days after infection to visualize plaques, as described previously.
as §2

In data set [9] the test system is human coronavirus strain NL63 (HCoV-NL63). Put plainly: HCoV-NL63 titer in medium of infected LLC-Mk2 cells, foci-forming assay. The data set is classed as cell-based. As for the experimental part: LR7 or LLC-Mk2 cells were infected at a MOI of 0.01 with MHV and HCoV-NL63, respectively, and treated with selected compounds at a concentration ranging from 0 to 50 μM. Culture supernatants were collected 1 day (MHV) or 4 days (HCoV-NL63) after infection. […]
as §2

The subject of data set [10] is SC-VLP entry into HEK-hACE2 cells. Put plainly: SARS-CoV-2 VLP (SC-VLP) internalization assay in HEK-hACE2 cells, luciferase. Format: cell-based. Conditions: 12.5 μM during SC-VLP production.
Data set [11] can be described thus: MTS-based cell viability assay in Vero cells. Particulars: African green monkey, 96 h per table footnote, read-out: CC50 (SARS-CoV-2 block). Here is the method: as §1
The test system of data set [12] is LR7 cells. Briefly: MTS-based cell viability assay in LR7 cells. Conditions: 50 μM, uninfected LR7 cells. Also on record: species or system mouse. As for the experimental part: as §1
Data set [13] in a line: MTS-based cell viability assay in LR7 cells. Particulars: mouse, LR7 cells, 48 h, 0–100 μM, read-out: CC50 (MHV block). On the set-up: species or system mouse. As for the experimental part:
as §1

Entries after “also recorded” stand apart in the source; their conditions may differ. Like-named read-outs stand apart in the source and are kept apart here.

In the case of tunicamycin, the “effect on MHV viral titers” value in data set [1] was “significantly reducing viral titers”.
As to `CCCC(=O)O[C@H]1CN2CC[C@H](O)[C@@H]2[C@@H](O)[C@@H]1O` [celgosivir], the “adverse effects in humans” value in data set [2] was “diarrhea, weight loss, and flatulence”.
On to `CCCCN1C[C@H](O)[C@@H](O)[C@H](O)[C@H]1CO` [miglustat], for which, in data set [2], the “adverse effects in humans” value was “diarrhea, weight loss, and flatulence”.
For `CC(=O)OC[C@H]1O[C@@H](SCc2cn(C[C@H]3O[C@@H](n4ccc(=O)[nH]c4=O)[C@H](O[Si](C)(C)C(C)(C)C)[C@@H]3O[Si](C)(C)C(C)(C)C)nn2)[C@H](OC(C)=O)[C@@H](OC(C)=O)[C@H]1OC(C)=O` [Compound 21, 2′,3′-di-O-tert-Butyldimethylsilyl-5′-deoxy-5′-[4-(2″,3″,4″,6″-tetra-O-acetyl-β-D-galactopyranosylthiomethyl)-1,2-3-triazol-1-yl]-uridine], the “protection against MHV-induced CPE” value in data set [3] (50 μM, MOI 0.01, 24 h) is on record as “significantly reduced cell death; also recorded: nearly eliminating CPE”. The “concentration above which MHV-induced CPE was significantly reduced” value in [3] (MOI 0.01, 24 h p.i.) was “above 6.25 μM”. In addition, the CC50 (usually the concentration giving 50% cytotoxicity) at 96 h is 46.7 µM in data set [4] and > 100 µM in data set [11]. For the same compound, the “dose above which no virus was detectable (MHV titer)” value in data set [5] (LR7 cells, 24 h p.i., plaque assay) is listed as “above 6.25 μM”. Besides, the IC50 (commonly the midpoint of a concentration-inhibition curve) in data set [5] (LR7, read-out: IC50 (MHV)) was 4.51 µM; in data set [5] (virus titer released from LR7 cells, MOI 0.01, 24 h p.i., plaque assay, read-out: IC50 (MHV)), 4.5 µM; in data set [8] (Severe acute respiratory syndrome coronavirus 2, Vero), 19 µM; in [8] (Severe acute respiratory syndrome coronavirus 2, Vero cells, supernatant 48 h after infection, plaque assay), ~19 µM; in data set [9] (96 h, virus titer released from LLC-Mk2 cells, MOI 0.01, 4 days p.i., read-out: IC50 (HCoV-NL63)), 5.7 µM; in data set [9] (LLC-MK2, read-out: IC50 (HCoV-NL63)) it was 5.56 µM. The “concentration that effectively suppressed HCoV-NL63 RNA synthesis” value in data set [6] was determined as 12.5 µM. Also, the “HCoV-NL63 N protein level” value in data set [7] is listed as “significantly reduced; also recorded: No N protein was detected”. In addition, in data set [9] (dose-response 0–25 μM, LLC-Mk2 cells), the “antiviral efficacy against HCoV-NL63 compared with compound 24” value is “slightly lower activity”. In data set [10], the “reduction of SC-VLP entry compared with the control” value was found to be 80%. In addition, the “reduction of cell viability (cytotoxicity in uninfected cells)” value in [12] is on record as “no detectable toxicity”. Further, in data set [13], the CC50 at 48 h amounted to 65.3 µM.
